One assay has as its system Trichophyton mentagr. The experiment in a line: Antimycotic in vitro activity, series dilution test. The class given is cell-based, Trichophyton mentagrophytes. The following applies: Sabourand's milieu d'epreuve, 5×10^4 germs/ml, 20° C., 96 hours. On the procedure:
(§1) The in vitro tests were carried out in a series dilution test with germ inocula of on average 5×10^4 germs/ml of substrate. The nutrient medium used was (a) for dermatophytes and moulds: Sabourand's milieu d'epreuve, […] The incubation temperature was 20° C. and the duration of incubation was 24 to 96 hours in the case of yeasts and 96 hours in the case of dermatophytes and moulds.

Another assay has as its system Aspergillus fumigatus. The description is as above. Format: cell-based. The following applies: Sabourand's milieu d'epreuve, 5×10^4 germs/ml, 20° C., 96 hours. On the procedure: as §1
The subject of assay [1] is dermatophytes, moulds and yeasts. The experiment in a line: Antimycotic in vitro activity, series dilution test (overall action spectrum). Format: cell-based. Conditions: result in words. On the procedure: The in vitro tests were carried out in a series dilution test with germ inocula of on average 5×10^4 germs/ml of substrate. The nutrient medium used was (a) for dermatophytes and moulds: Sabourand's milieu d'epreuve, and (b) for yeasts: meat extract/glucose broth. The incubation temperature was 20° C. and the duration of incubation was 24 to 96 hours in the case of yeasts and 96 hours in the case of dermatophytes and moulds.

Another assay relates to Candida albicans. Description: Antimycotic in vitro activity, series dilution test. Format: cell-based. The following applies: meat extract/glucose broth, 5×10^4 germs/ml, 20° C., 24 to 96 hours. On the procedure:
(§2) The in vitro tests were carried out in a series dilution test with germ inocula of on average 5×10^4 germs/ml of substrate. The nutrient medium used was (b) for yeasts: meat extract/glucose broth. The incubation temperature was 20° C. and the duration of incubation was 24 to 96 hours in the case of yeasts and 96 hours in the case of dermatophytes and moulds.

The next assay deals with Candida. Description: Antimycotic in vivo activity (oral) in candidosis of mice. The following applies: 10-50 mg/kg one hour before and seven hours after infection, result in words. Also noted: species or system mice (SPF-CF1). On the procedure: Mice of the SPF-CF1 type were infested intravenously with 1-2×10^6 logarthmically growing Candida cells, which were suspended in physiological saline solution. The animals were treated with, in each case, 10-50 mg/kg of body weight of the products one hour before and seven hours after the infection.

A further assay has as its system Torulopsis glabrata. The experiment in a line: Antimycotic in vitro activity, series dilution test. The following applies: Nakaseomyces glabratus; meat extract/glucose broth; 5×10^4 germs/ml; 20° C.; 24 to 96 hours. Format: cell-based. On the procedure:
as §2

Molecules are shown by their SMILES. Values after ≈ are worked out from the molar mass of the structure shown.

For the molecule `CC(C)(n1cncn1)C(O)(Cn1cncn1)c1ccc(-c2ccc(Cl)cc2)cc1` (stereo not drawn) [Example 6], the MIC – broadly, the least concentration at which growth counts as inhibited – is ≤ 1 µg/mL in the assay with Trichophyton mentagr., 16 µg/mL (≈ 39.1 µM) against Aspergillus fumigatus and 64 µg/mL (≈ 157 µM) with Candida albicans. For the same molecule, in assay [1], the “antimycotic action spectrum in vitro” value is on record as “good antimycotic action spectrum”.

With `CC(C)(n1cncn1)C(O)(Cn1cncn1)c1ccc(Cl)cc1` (stereo not drawn) [Example 1, 2-(4-chlorophenyl)-1,3-di-(1,2,4-triazol-1-yl)-3-methyl-2-butanol], the “antimycotic action in candidosis of mice (in words)” value (“antimycotic action in candidosis” for short) in the assay on Candida is “good antimycotic action”.

`CC(C)(n1cncn1)C(O)(Cn1cncn1)c1ccc(F)cc1` (stereo not drawn) [Example 3]: the “antimycotic action in candidosis” value in the assay on Candida was “good antimycotic action”. Moreover, the MIC in the assay with Trichophyton mentagr. is 16 µg/mL (≈ 50.6 µM); against Aspergillus fumigatus, > 64 µg/mL; in the assay on Candida albicans it was 16 µg/mL (≈ 50.6 µM); with Torulopsis glabrata it was 64 µg/mL (≈ 202 µM). Besides, the “antimycotic action spectrum in vitro” value in assay [1] is “good antimycotic action spectrum”.

Consider `CC(C)(n1cncn1)C(O)(Cn1ccnc1)c1ccc(Oc2ccc(Cl)cc2)cc1` (stereo not drawn) [Example 8], for which the MIC in the assay with Trichophyton mentagr. is 8 µg/mL (≈ 18.9 µM); in the assay with Aspergillus fumigatus it was 64 µg/mL (≈ 151 µM); with Candida albicans it was 4 µg/mL (≈ 9.44 µM); in the assay on Torulopsis glabrata, 32 µg/mL (≈ 75.5 µM). Besides, in assay [1], the “antimycotic action spectrum in vitro” value is given as “good antimycotic action spectrum”.

Consider `CC(C)(n1cncn1)C(O)(Cn1ccnc1)c1ccc(-c2ccc(Cl)cc2)cc1` (stereo not drawn) [Example 9], for which the MIC against Trichophyton mentagr. came out at 4 µg/mL (≈ 9.81 µM); with Aspergillus fumigatus, 32 µg/mL (≈ 78.4 µM); in the assay on Candida albicans, 8 µg/mL (≈ 19.6 µM); in the assay on Torulopsis glabrata, 8 µg/mL (≈ 19.6 µM). The “antimycotic action spectrum in vitro” value in assay [1] is recorded as “good antimycotic action spectrum”.

Consider `CC(n1cncn1)C(O)(Cn1cncn1)c1ccc(-c2ccccc2)cc1` (stereo not drawn) [Example 10], for which the MIC against Trichophyton mentagr. is 2 µg/mL (≈ 5.55 µM); against Aspergillus fumigatus it was 64 µg/mL (≈ 178 µM); in the assay on Candida albicans it was 2 µg/mL (≈ 5.55 µM); in the assay on Torulopsis glabrata, 64 µg/mL (≈ 178 µM). Also, in assay [1], the “antimycotic action spectrum in vitro” value is “good antimycotic action spectrum”.

On to `CC(C)(n1cncn1)C(O)(Cn1cncn1)c1ccccc1` (stereo not drawn) [Example 4], for which the “antimycotic action in candidosis” value in the assay on Candida is listed as “good antimycotic action”.

As for `CC(C)(n1cncn1)C(O)(Cn1cncn1)c1ccc(Oc2ccc(Cl)cc2)cc1` (stereo not drawn) [Example 5], in the assay on Candida, the “antimycotic action in candidosis” value is listed as “good antimycotic action”. Besides, the MIC in the assay on Trichophyton mentagr. was ≤ 1 µg/mL; with Aspergillus fumigatus, > 64 µg/mL; in the assay with Candida albicans, 2 µg/mL (≈ 4.71 µM); against Torulopsis glabrata, 32 µg/mL (≈ 75.3 µM). In addition, the “antimycotic action spectrum in vitro” value in assay [1] is reported as “good antimycotic action spectrum”.

These data come from patent publication US5011850A, “Substituted diazolylalkyl-carbinols, a process for their preparation and their use as antimycotic agents” (Bayer Aktiengesellschaft, priority 1983, dated 1991).
